Laboratory results from patent US9260710B2, “Photocleavable linker” (City of Hope, priority 2012, dated 2016).

Tests used:
[1] = test system: TcTex1 and FKBP-IC peptide (TcTex1 trap); assay: Native PAGE and SEC of TcTex1 / TcTex-trap complex formation with AP20187; type: biochemical
Source text: To generate a TcTex1 trap, residues 107-125 of rat dynein IC2C, which specifically interact with TcTex1, were fused to the C-terminus of FKBP (FKBP-IC; FIG. 10D). […] However, addition of AP20187 to the admixture of FKBP-IC (L112A) peptide and TcTex1 produced a shift, but required a 16-fold higher concentration of AP20187 than the LC8/LC8-trap interaction (FIG. 10E, round 2). Based on this observation, we hypothesized that the sequence immediately preceding the TcTex1-binding region may interfere with the interaction, either through conformational restriction due to P109 or electrostatic repulsion due to K111. Therefore, we mutated the sequence PIK to GGS, to introduce flexible, hydrophilic residues (residues 109-111) (FIG. 10D).

LC8-LC8TRAP complex = assay: UV light (350 nm) disruption of dimerizer-LC8-LC8TRAP complex, native PAGE; type: biochemical; details: UV 350 nm
Experimental: Native PAGE. Each of, LC8 and FKBP-LC8TRAP, were mixed in a molar concentration of 50 μM and 1.2 molar excess (60 μM) of AP20187 or 2.4 molar excess (120 μM) of PhAP20187. The mix were incubated at 4° C. for 5 min. Native PAGE analysis was performed at 16° C. using 8-25% gradient gels on the PHASTSYSTEM™ (GE Biosciences).
Next, we characterized how well UV light could disrupt the PhAP-LC8-LC8TRAP complex in vitro. We generated the PhAP-LC8-LC8TRAP and AP-LC8-LC8TRAP complexes and exposed each to UV light (350 nm). Native PAGE indicated loss of the band corresponding to the PhAP-LC8-LC8TRAP complex and an increase in intensity of bands corresponding to the individual components after UV induction. The band corresponding to the PhAP-LC8-LC8TRAP complex was less intense in samples that received a five min exposure to UV light and undetectable after a 10 min exposure. On the other hand, the LC8-LC8TRAP complex induced by the non-photocleavable AP persisted, even after a 30 min exposure to UV light (FIG. 2C).

[2] = test system: non-transfected or GFPFKBP-expressing cells; assay: Organelle dispersion in cells without trap treated with AP20187; type: cell-based
Source text: (§1) In vivo effect of Dynein LC and IC Traps. As tests for LC function, we evaluated the effects of the traps on early endosome, lysosome, and Golgi distribution, as well as mitotic progression. First, we fused green fluorescent protein (GFP) to the N-terminus of both FKBP-traps to identify transfected cells. Next, we transfected Cos1, Cos7, or HeLa cells with either trap or a GFP-FKBP control and labeled endosomes, lysosomes and Golgi with EEA1, LAMP2 and GM130 markers, respectively (FIGS. 12A-12C). […] The percentage of cells expressing the GFPLC8 or GFP-TcTex1 trap with dispersed endosomes was 14.7±1.5% and 13.3±1.5%, respectively, as compared to 11.7±3.5% and 10.3±3.5% for non-transfected cells and cells that expressed a GFP-FKBP control, respectively. […] After 8 h of treatment with AP20187, we observed greater than 50% dispersion of the three organelle types for each trap.
(§2) To ensure the AP20187 concentration was not limiting, we followed the LC8-trap-induced dispersion of lysosomes as a function of AP20187 concentration after 8 h. […] For the TcTex1-trap, we observed efficient endosome, lysosome and Golgi dispersion at AP20187 concentrations of 1 μM or greater.

[3] = test system: GFP-LC8 trap transfected Cos1/Cos7 cells; assay: Organelle dispersion and microtubule array in cells expressing the LC8 trap; type: cell-based
Source text: as §1, §2
Kinetic Analysis Separates Dynein Functions. A major purpose for developing these traps is to provide immediate inhibition of protein function and follow the cellular response from this perturbation to gain new insight. Thus, we monitored the fraction of cells with dispersed organelles as a function of time. After induction of dimerization by AP20187, effects on both early endosome and lysosome distribution were detectable at 10 min, and leveled off at ˜2 h (FIGS. 14A-14B). […] The most rapid effect was observed on lysosomes in cells expressing the LC8 trap. In striking contrast, Golgi dispersal using either trap occurred over a much longer time-course, requiring 8 h after induction of dimerization to reach similar levels of dispersion as for endosomes and lysosomes. Twenty-four hours after addition of AP20187, the percentage of cells with dispersed Golgi reached levels greater than 85%.

[4] = modified FKBP-IC trap, PIK to GGS (round 3)
[5] = after induction of dimerization

Row | Structure (SMILES) | fold higher concentration of AP20187 required for shift than the LC8/LC8-trap interaction ([1]; FKBP-IC (L112A) peptide and TcTex1 (round 2)) [fold] | concentration of AP20187 to fully sequester TcTex1 relative to that required for the LC8-trap [1, 4] | fold lower concentration of AP20187 to fully sequester TcTex1 than the FKBP-IC (L112A) peptide [1, 4] [fold] | band of dimerizer-LC8-LC8TRAP complex after UV exposure (LC8-LC8TRAP complex; 30 min exposure) | effect on dispersion for each organelle ([2]; AP20187 for 8 h) | dispersal of organelles at any concentration tested ([2]; non-transfected cells, <2 μM) | dispersion of the three organelle types (early endosomes, lysosomes, Golgi) ([3]; 8 h of treatment, 100 μM AP20187) | microtubule radial array / cytoskeleton changes ([3]; 8 h post-induction) | AP20187 concentration at which lysosome dispersion reached a plateau ([3]; after 8 h) [nM] | time at which effects on early endosome and lysosome distribution leveled off [3, 5] [h] | time at which effects on early endosome and lysosome distribution were detectable [3, 5] [min] | time required for Golgi dispersal to reach similar levels as endosomes and lysosomes [3, 5] [h] | percentage of cells with dispersed Golgi ([3]; twenty-four hours after addition) | band of dimerizer-LC8-LC8TRAP complex after UV exposure (LC8-LC8TRAP complex; 10 min exposure) | band of dimerizer-LC8-LC8TRAP complex after UV exposure (LC8-LC8TRAP complex; five min exposure)
1 | CCC(C(=O)N1CCCCC1C(=O)OC(CCc1ccc(OC)c(OC)c1)c1cccc(OCC(=O)NCC(CNC(=O)COc2cccc(C(CCc3ccc(OC)c(OC)c3)OC(=O)C3CCCCN3C(=O)C(CC)c3cc(OC)c(OC)c(OC)c3)c2)CN(C)C)c1)c1cc(OC)c(OC)c(OC)c1 (stereo not drawn) [AP, AP20187] | 16 | approximately twice | ~8 | persisted | did not affect the dispersion | did not show dispersal | greater than 50% | No significant changes | 100 | ~2 | 10 | 8 | greater than 85% |  | 
2 | CC[C@H](C(=O)N1CCCC[C@H]1C(=O)O[C@H](CCc1ccc(OC)c(OC)c1)c1cccc(OCC(=O)OC(C)c2ccc(C(C)OC(=O)COc3cccc([C@@H](CCc4ccc(OC)c(OC)c4)OC(=O)[C@@H]4CCCCN4C(=O)[C@@H](CC)c4cc(OC)c(OC)c(OC)c4)c3)c([N+](=O)[O-])c2)c1)c1cc(OC)c(OC)c(OC)c1 (stereo partly drawn) [PhAP] |  |  |  |  |  |  |  |  |  |  |  |  |  | undetectable | less intense
